Data on 45 molecules can be found in patent US12428415B2, “Matriptase 2 inhibitors and uses thereof” (Disc Medicine, Inc., priority 2018, dated 2025).

The assay deals with T1, Human Recombinant Matriptase 2 (Homo sapiens, UniProt Q8IU80).
T1 construct: purchased Enzo Life Sciences (an in-house preparation was also used) ALX-201-752-1
T1 sequence (Q8IU80 1-811): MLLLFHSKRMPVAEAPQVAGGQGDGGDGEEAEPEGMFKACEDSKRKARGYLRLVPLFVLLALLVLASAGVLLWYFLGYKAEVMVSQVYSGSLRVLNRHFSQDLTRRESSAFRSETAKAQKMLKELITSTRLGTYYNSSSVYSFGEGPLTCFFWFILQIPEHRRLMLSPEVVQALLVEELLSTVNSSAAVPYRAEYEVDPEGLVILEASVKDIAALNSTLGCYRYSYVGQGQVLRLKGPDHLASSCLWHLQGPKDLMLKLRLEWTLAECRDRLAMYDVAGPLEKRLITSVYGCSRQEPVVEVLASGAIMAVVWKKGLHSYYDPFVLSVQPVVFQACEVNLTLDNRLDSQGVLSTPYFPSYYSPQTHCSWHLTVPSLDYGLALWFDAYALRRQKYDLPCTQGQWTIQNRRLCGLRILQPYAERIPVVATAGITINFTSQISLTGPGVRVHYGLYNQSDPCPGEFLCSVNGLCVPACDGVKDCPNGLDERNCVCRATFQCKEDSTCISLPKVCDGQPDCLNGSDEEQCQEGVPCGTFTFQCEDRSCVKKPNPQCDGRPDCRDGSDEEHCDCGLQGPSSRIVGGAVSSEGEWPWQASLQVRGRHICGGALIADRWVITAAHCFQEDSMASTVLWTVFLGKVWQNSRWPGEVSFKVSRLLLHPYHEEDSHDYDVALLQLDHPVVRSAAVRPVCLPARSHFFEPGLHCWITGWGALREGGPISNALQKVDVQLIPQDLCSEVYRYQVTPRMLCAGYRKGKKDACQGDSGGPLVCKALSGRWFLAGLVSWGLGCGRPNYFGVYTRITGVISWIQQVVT
Kind of assay: Matriptase 2 fluorescence based inhibition assay, Method A (100 mM TRIS pH 9, 1 mg/mL BSA). The format is biochemical. The settings on record: Assay Used = A, read-out: Mar-2 % inhibition at 1 uM. Put shortly:
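Enzyme (7 nM commercial or 15 nM in-house) preincubated 30 min with compound in 100 mM TRIS pH 9, 1 mg/mL BSA, 1% DMSO at 25° C. Boc-Gln-Ala-Arg-AMC substrate at 100 μM; fluorescence (Ex 360/Em 480 nm) read 60 min later. Screened at 1 and 10 μM; IC50 from variable-slope sigmoidal fit.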

Like-named read-outs stand apart in the source and are kept apart here.

As a reminder, the inhibition is the drop in the measured response relative to a control, in per cent. As for `N=C(N)c1ccc2c(N)c(C(=O)N3CCC(CCN)CC3)n(Cc3ccc(Oc4ccccc4)cc3)c2c1` [Compound I-348], the inhibition at 1 µM (at 1 uM) fell in the range of 0 to 25%.

In the case of `N=C(N)c1ccc2c(N)c(C(=O)N3CCC(CCN)CC3)n(CCS(=O)(=O)c3ccccc3)c2c1` [Compound I-349, 3-Amino-2-(4-(2-aminoethyl)piperidine-1-carbonyl)-1-(2-(phenylsulfonyl)ethyl)-1H-indole-6-carboximidamide], under “at 1 uM”, the inhibition at 1 µM fell in the range of 25 to 50%.

In the case of `N=C(N)c1ccc2c(N)c(C(=O)N3CCC4CCCCC4C3)n(CCS(=O)(=O)c3ccccc3)c2c1` (stereo not drawn) [Compound I-351], the inhibition at 1 µM (at 1 uM) fell in the range of 0 to 25%.

Turning to `N=C(N)c1ccc2c(N)c(C(=O)N3CCc4ccccc4C3)n(CCS(=O)(=O)c3ccccc3)c2c1` [Compound I-352], under “at 1 uM”, the inhibition at 1 µM is 0 to 25%.

Consider `N=C(N)c1ccc2c(Cl)c(C(=O)N3CCC(F)CC3)n(Cc3ccc(-c4ccccc4)cc3)c2c1` [Compound I-353, 1-([1,1′-Biphenyl]-4-ylmethyl)-3-chloro-2-(4-fluoropiperidine-1-carbonyl)-1H-indole-6-carboximidamide], for which the inhibition at 1 µM (at 1 uM) is 0 to 25%.

Turning to `N=C(N)c1ccc2c(Cl)c(C(=O)N3CCC(F)(F)C3)n(Cc3ccc(C(N)=O)cc3)c2c1` [Compound I-354], the inhibition at 1 µM (at 1 uM) is 0 to 25%.

For `N=C(N)c1ccc2c(Cl)c(C(=O)N3CCC(F)CC3)n(Cc3ccc(C(N)=O)cc3)c2c1` [Compound I-355], the inhibition at 1 µM (at 1 uM) was in the range of 0 to 25%.

For the molecule `N=C(N)c1ccc2cc(C(=O)N3CCC(C(=O)NCCCN)CC3)n(Cc3ccc(C(F)(F)F)cc3)c2c1` [Compound I-356, N-(3-Aminopropyl)-1-(6-carbamimidoyl-1-(4-(trifluoromethyl)benzyl)-1H-indole-2-carbonyl)-piperidine-4-carboxamide], where the note is “at 1 uM”, the inhibition at 1 µM fell in the range of 0 to 25%.

Consider `N=C(N)c1ccc2cc(C(=O)N3CCC(C(=O)NCCN)CC3)n(CCc3ccccc3)c2c1` [Compound I-357], for which the inhibition at 1 µM (at 1 uM) is 0 to 25%.

As for `N=C(N)c1ccc2cc(C(=O)N3CCC(C(=O)NCCCN)CC3)n(CCc3ccccc3)c2c1` [Compound I-358], the inhibition at 1 µM (at 1 uM) lay within 25 to 50%.

Consider `N=C(N)NCCCNC(=O)C1CCN(C(=O)c2cc3ccc(C(=N)N)cc3n2Cc2ccc(C(F)(F)F)cc2)CC1` [Compound I-359, 1-(6-Carbamimidoyl-1-(4-(trifluoromethyl)benzyl)-1H-indole-2-carbonyl)-N-(3-guanidinopropyl)-piperidine-4-carboxamide], for which, under “at 1 uM”, the inhibition at 1 µM was in the range of 25 to 50%.

As to `N=C(N)NCCC1CCN(C(=O)c2cc3ccc(C(=N)N)cc3n2Cc2ccc3ccccc3c2)CC1` [Compound I-360], the inhibition at 1 µM (at 1 uM) lay in the range of 25 to 50%.

Turning to `N=C(N)NCCC1CCN(C(=O)c2cc3ccc(C(=N)N)cc3n2Cc2ccc(-c3ccccc3)cc2)CC1` [Compound I-361], the inhibition at 1 µM (at 1 uM) fell in the range of 0 to 25%.

With `N=C(N)c1ccc2cc(C(=O)N3CCc4ccccc4C3)n(Cc3cccc(NC(=O)CCN)c3)c2c1` [Compound I-365], the inhibition at 1 µM (at 1 uM) was 0 to 25%.

For `N=C(N)c1ccc2cc(C(=O)N3CCC(F)CC3)n(Cc3cccc(NC(=O)CCN)c3)c2c1` [Compound I-366], the inhibition at 1 µM (at 1 uM) was 0 to 25%.

`N=C(N)c1ccc2cc(C(=O)N3CCC(F)(F)CC3)n(Cc3cccc(NC(=O)CCN)c3)c2c1` [Compound I-367]: where the note is “at 1 uM”, the inhibition at 1 µM is 0 to 25%.

Regarding `N=C(N)c1ccc2cc(C(=O)N3CC[C@H](F)C3)n(Cc3cccc(NC(=O)CCN)c3)c2c1` [Compound I-368], the inhibition at 1 µM (at 1 uM) lay in the range of 0 to 25%.

As to `N=C(N)c1ccc2cc(C(=O)N3CCC(F)(F)C3)n(Cc3cccc(NC(=O)CCN)c3)c2c1` [Compound I-369], the inhibition at 1 µM (at 1 uM) fell in the range of 0 to 25%.

`N=C(N)c1ccc2cc(C(=O)N3CCC(CCN)CC3)n(Cc3ccc(NC(=O)CCCN)cc3)c2c1` [Compound I-372]: the inhibition at 1 µM (at 1 uM) fell in the range of 25 to 50%.

On to `N=C(N)c1ccc2cc(C(=O)N3CCC(F)CC3)n(Cc3ccc(NC(=O)CCN)cc3)c2c1` [Compound I-373], for which the inhibition at 1 µM (at 1 uM) is 0 to 25%.

With `N=C(N)c1ccc2cc(C(=O)N3CCC(F)(F)CC3)n(Cc3ccc(NC(=O)CCN)cc3)c2c1` [Compound I-374], where the note is “at 1 uM”, the inhibition at 1 µM was in the range of 0 to 25%.

Turning to `N=C(N)c1ccc2cc(C(=O)N3CC[C@H](F)C3)n(Cc3ccc(NC(=O)CCN)cc3)c2c1` [Compound I-375], where the note is “at 1 uM”, the inhibition at 1 µM was 0 to 25%.

Consider `N=C(N)c1ccc2cc(C(=O)N3CCC(F)(F)C3)n(Cc3ccc(NC(=O)CCN)cc3)c2c1` [Compound I-376], for which, where the note is “at 1 uM”, the inhibition at 1 µM was 0 to 25%.

Consider `N=C(N)c1ccc2cc(C(=O)N3CCC(CF)CC3)n(Cc3ccc(NC(=O)CCN)cc3)c2c1` [Compound I-377], for which the inhibition at 1 µM (at 1 uM) lay in the range of 0 to 25%.

Consider `N=C(N)c1ccc2cc(C(=O)N3CCc4ccccc4C3)n(Cc3ccc(NC(=O)CCN)cc3)c2c1` [Compound I-378], for which the inhibition at 1 µM (at 1 uM) is 0 to 25%.

As to `NCCC1CCN(C(=O)c2cc3ccc(/C(N)=N\O)cc3n2Cc2ccc(-c3ccccc3)cc2)CC1` [Compound I-380], the inhibition at 1 µM (at 1 uM) fell in the range of 0 to 25%.

With `NCCC(=O)Nc1cccc(Cn2c(C(=O)N3CCC(CCN)CC3)cc3ccc(/C(N)=N/O)cc32)c1` [Compound I-381], the inhibition at 1 µM (at 1 uM) was 0 to 25%.

In the case of `NCCCC(=O)Nc1cccc(Cn2c(C(=O)N3CCC(CCN)CC3)cc3ccc(/C(N)=N/O)cc32)c1` [Compound I-382], under “at 1 uM”, the inhibition at 1 µM is 0 to 25%.

Turning to `NCCC(=O)Nc1ccc(Cn2c(C(=O)N3CCC(CCN)CC3)cc3ccc(/C(N)=N/O)cc32)cc1` [Compound I-383], for the setting “at 1 uM”, the inhibition at 1 µM was 0 to 25%.

With `NCCCC(=O)Nc1ccc(Cn2c(C(=O)N3CCC(CCN)CC3)cc3ccc(/C(N)=N/O)cc32)cc1` [Compound I-384], the inhibition at 1 µM (at 1 uM) lay within 25 to 50%.

In the case of `CCNC(=O)c1ccc(Cn2c(C(=O)N3CCC(F)(F)C3)cc3ccc(C(=N)N)cc32)cc1` [Compound I-385, 4-((6-Carbamimidoyl-2-(3,3-difluoropyrrolidine-1-carbonyl)-1H-indol-1-yl)methyl)-N-ethylbenzamide], the inhibition at 1 µM (at 1 uM) fell in the range of 0 to 25%.

In the case of `CN(C)C(=O)c1ccc(Cn2c(C(=O)N3CCC(F)(F)C3)cc3ccc(C(=N)N)cc32)cc1` [Compound I-386], the inhibition at 1 µM (at 1 uM) was in the range of 0 to 25%.

Turning to `N=C(N)c1ccc2cc(C(=O)N3CCC(F)(F)C3)n(Cc3ccc(C(=O)NC4CC4)cc3)c2c1` [Compound I-387], the inhibition at 1 µM (at 1 uM) fell in the range of 0 to 25%.

As to `CNC(=O)c1ccc(Cn2c(C(=O)N3CCC(F)CC3)cc3ccc(C(=N)N)cc32)cc1` [Compound I-388], the inhibition at 1 µM (at 1 uM) is 0 to 25%.

For `CN(C)C(=O)c1ccc(Cn2c(C(=O)N3CCC(F)CC3)cc3ccc(C(=N)N)cc32)cc1` [Compound I-389], where the note is “at 1 uM”, the inhibition at 1 µM is 0 to 25%.

Consider `CCNC(=O)c1ccc(Cn2c(C(=O)N3CCC(F)CC3)cc3ccc(C(=N)N)cc32)cc1` [Compound I-390], for which the inhibition at 1 µM (at 1 uM) fell in the range of 0 to 25%.

Take `N=C(N)c1ccc2cc(C(=O)N3CCC(F)CC3)n(Cc3ccc(C(=O)NC4CC4)cc3)c2c1` [Compound I-391]: where the note is “at 1 uM”, the inhibition at 1 µM was 0 to 25%.

With `N=C(N)c1ccc2cc(C(=O)N3CCC(F)(F)C3)n(Cc3ccc(C(=O)NCCN)cc3)c2c1` [Compound I-392], where the note is “at 1 uM”, the inhibition at 1 µM lay in the range of 0 to 25%.

As to `N=C(N)c1ccc2cc(C(=O)N3CCC(F)CC3)n(Cc3ccc(C(=O)NCCN)cc3)c2c1` [Compound I-393], for the setting “at 1 uM”, the inhibition at 1 µM fell in the range of 0 to 25%.

For `NC(=O)c1ccc2cc(C(=O)N3CCc4ccccc4C3)n(Cc3ccc(-c4ccccc4)cc3)c2c1` [Compound I-394, 1-([1,1′-Biphenyl]-4-ylmethyl)-2-(1,2,3,4-tetrahydroisoquinoline-2-carbonyl)-1H-indole-6-carboxamide], the inhibition at 1 µM (at 1 uM) was 0 to 25%.

Regarding `N=C(N)c1ccc2cc(C(=O)N[C@H]3CC[C@H](N)CC3)n(S(=O)(=O)c3ccc4ccccc4c3)c2c1` [Compound I-397], the inhibition at 1 µM (1 uM compound) fell in the range of 25 to 50%.

For the molecule `N/C(=N\O)c1ccc2cc(C(=O)NCC3CCNCC3)n(Cc3ccc4ccccc4c3)c2c1` [Compound I-398, 6-(N′-hydroxycarbamimidoyl)-1-(naphthalen-2-ylmethyl)-N-(piperidin-4-ylmethyl)-1H-indole-2-carboxamide], where the note is “1 uM compound”, the inhibition at 1 µM is 0 to 25%.

With `N/C(=N\O)c1ccc2cc(C(=O)N[C@H]3CC[C@H](N)CC3)n(Cc3ccc4ccccc4c3)c2c1` [Compound I-399], under “1 uM compound”, the inhibition at 1 µM was in the range of 0 to 25%.

For `N/C(=N/O)c1ccc2cc(C(=O)N[C@H]3CC[C@H](N)CC3)n(Cc3cccc4ccccc34)c2c1` [Compound I-400], for the setting “1 uM compound”, the inhibition at 1 µM fell in the range of 25 to 50%.

On to `COc1ccc2cc(Cn3c(C(=O)N[C@H]4CC[C@H](N)CC4)cc4ccc(/C(N)=N\O)cc43)ccc2c1` [Compound I-401], for which the inhibition at 1 µM (1 uM compound) was 0 to 25%.
